In ChEMBL document CHEMBL1201862, “PubChem BioAssay data set” (2004):
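Cells were grown in 96-well plates and exposed to each compound for 48 hours at five concentrations; endpoints were interpolated linearly between bracketing concentrations, or set to the highest concentration if not reached. GI50 marks 50% less growth.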 The source made the active and inactive calls. No stated cut-off is given here; in the data, active = GI50 up to about 1.1 µM and inactive = higher.

Assays:
Test in all cases: NCI anticancer screen, dose series, 48 h
SF-268 = system: SF-268
NCI-H522 = system: NCI-H522
PC-3 = system: PC-3
HCT-116 = system: HCT-116
A498 = system: A498
K562 = system: K562
MDA-MB-435 = system: MDA-MB-435
RPMI-8226 = system: RPMI-8226
OVCAR-3 = system: OVCAR-3
CAKI-1 = system: CAKI-1
SN12C = system: SN12C
SK-MEL-28 = system: SK-MEL-28
T47D = system: T47D
NCI-H23 = system: NCI-H23
IGROV-1 = system: IGROV-1
SR = system: SR
MCF7 = system: MCF7
UO-31 = system: UO-31
ACHN = system: ACHN
CCRF-CEM = system: CCRF-CEM

SMILES | GI50 (SF-268) | GI50 (NCI-H522) | GI50 (PC-3) | GI50 (HCT-116) | GI50 (A498) | GI50 (K562) | GI50 (MDA-MB-435) | GI50 (RPMI-8226) | GI50 (OVCAR-3) | GI50 (CAKI-1) | GI50 (SN12C) | GI50 (SK-MEL-28) | GI50 (T47D) | GI50 (NCI-H23) | GI50 (IGROV-1) | GI50 (SR) | GI50 (MCF7) | GI50 (UO-31) | GI50 (ACHN) | GI50 (CCRF-CEM)
NCCNc1ncnc2ccc(Cl)cc12 | 81.1 µM (inactive) | 57.7 µM (inactive) | 75.5 µM (inactive) | 67.8 µM (inactive) | 37.9 µM (inactive) | > 100 µM (inactive) | > 100 µM (inactive) | 96.2 µM (inactive) | > 100 µM (inactive) | > 100 µM (inactive) | 88.5 µM (inactive) | > 100 µM (inactive) | > 100 µM (inactive) | > 100 µM (inactive) | 49.9 µM (inactive) | 45.7 µM (inactive) | 96.8 µM (inactive) | 97.3 µM (inactive) | 66.4 µM (inactive) | > 100 µM (inactive)
Cc1ccc([N+](=O)[O-])cc1S(=O)(=O)Nc1ccc(C(=O)/C=C/c2cccs2)cc1 | 32 µM (inactive) | 19.2 µM (inactive) | 21.1 µM (inactive) | 18.2 µM (inactive) | 15.3 µM (inactive) | 29 µM (inactive) | 17.6 µM (inactive) | 20.7 µM (inactive) | 20.8 µM (inactive) | 16.2 µM (inactive) | 24.2 µM (inactive) | 23.1 µM (inactive) | 25.6 µM (inactive) | 20.2 µM (inactive) | 36.6 µM (inactive) | 18.9 µM (inactive) | 15.7 µM (inactive) | 20 µM (inactive) | 29.4 µM (inactive) | 0.271 µM (active)
CN1CCN(CCCCN2c3ccccc3Sc3ccc(N=[N+]=[N-])cc32)CC1 | 9.71 µM (inactive) | 5.01 µM (inactive) | 4.65 µM (inactive) | 3.72 µM (inactive) | 13.8 µM (inactive) | 1.89 µM (inactive) | 2.07 µM (inactive) | 2.36 µM (inactive) | 8.07 µM (inactive) | 7.29 µM (inactive) | 12.2 µM (inactive) | 1.84 µM (inactive) | 14.9 µM (inactive) | 17.8 µM (inactive) | 7.91 µM (inactive) | 2.58 µM (inactive) | 4.17 µM (inactive) | 7.57 µM (inactive) | 8.65 µM (inactive) | 2.6 µM (inactive)
